Our source for the melting point values is a melting point compilation (Tetko et al.; mined from patent text by program, amines drawn as free bases though some values may be those of a salt).

Regarding `CC(CC#N)(C(=O)NCC#N)c1ccc(C(=O)Nc2cn3cc(Cl)ccc3n2)cc1` (stereo unspecified), the melting point was in the range of 268 to 269 °C.

Consider `C=Cc1cccc2ccc(O)nc12`, for which the melting point is 96 °C.

Compound `CC(C)(C)NC(=O)C(=O)C(C)(C)C` gave a melting point of 65 °C.

The compound `O=C(c1ccccn1)c1cnn2c(-c3cccc(C(F)(F)F)c3)ccnc12` showed a melting point of 166 to 167 °C.

Take `O=c1c2ccsc2ccn2ccnc12`: the melting point was 267 °C.

Regarding `COc1ccc(C(O)COc2ccc(C(=O)O)c(O)c2)cc1C12CC3CC(CC(C3)C1)C2` (stereo unspecified), the melting point was in the range of 178 to 179 °C.

`CCCCCCCCSc1ccc(CC(COC(C)=O)(COC(C)=O)NC(C)=O)cc1` displayed a melting point of 71 to 74 °C.

`O=C1NCC=NN1c1cc(Cl)cc(Cl)c1` yielded a melting point of 179 to 181 °C.

On to `Cc1ccc(NC(=O)NCC2(c3ccccc3)CCCCC2)cc1`, for which the melting point was in the range of 135 to 137 °C.

In turn, `CCON(C(=O)c1cn(C)nc1C(F)F)C(C)Cc1c(Cl)cc(Cl)cc1Cl` (stereo unspecified) had a melting point of 111 to 114 °C.

For `COC(=O)COc1ccc2cc(CNC(=O)OC(C)(C)C)ccc2c1Br`, the melting point was in the range of 96 to 100 °C.

`CC1(C)SCc2ccccc2C1N=CNC#N` (stereo unspecified): the melting point fell in the range of 164 to 166 °C.

The compound `CCC1(c2ccc(COc3ccc(CO)c(CO)c3)s2)OCCO1` registered a melting point of 78 to 80 °C.

`COc1ccc(Sc2cnnc3ccccc23)cc1`: the melting point came to 163 °C.

In the case of `FC(F)C(F)(F)Oc1cccc(Nc2nccc(-c3c[nH]c4ccccc34)n2)c1`, the melting point is 140 to 142 °C.

`O=c1c2cc(F)c(Cl)nc2n(-c2ccc(F)cc2)c(=O)n1OCc1ccccc1` returned a melting point of 208 to 209 °C.

As to `CC(C)(C)c1ocnc1C=C(O)C(=O)N[C@@H](Cc1ccccc1)C(N)=O`, the melting point lay within 50 to 53 °C.

`CCOC(=O)c1cnc(Nc2ccccc2F)[nH]c1=O` yielded a melting point of 250 to 252 °C.

Compound `COc1ccc2c3ccnc(C)c3n(CCCc3ccccc3)c2c1` had a melting point of 117 to 118 °C.

The compound `O=S(=O)(c1ccc(Cl)cc1)c1ccc(NCc2nnn[nH]2)cc1` registered a melting point of 102 to 105 °C.

As for `S=c1[nH]ccn1C1CCc2ccccc21` (stereo unspecified), the melting point lay within 136 to 137 °C.

`Cc1ccc2c(c1)C(=O)C(=O)N2CC(N)=O` had a melting point of 171 to 172 °C.

`CC(=O)N(C)C(Cc1ccccc1N)c1ccccn1` (stereo unspecified) came in with a melting point of 103 to 107 °C.

With `CCCNCCCC(c1ccccc1)c1ccccc1`, the melting point lay within 94 to 96 °C.

The compound `Cc1ccc(S(=O)(=O)c2c(N3CCN(C(=O)c4cccs4)CC3)c3ccccc3n(C)c2=O)cc1` yielded a melting point of 213 °C.

Compound `CCC(=NOc1ccc(F)cc1)c1cc(Cl)ccc1NS(=O)(=O)C(F)(F)F` registered a melting point of 47 to 48 °C.

Compound `CCOC(=O)CSc1nc(O)ns1` had a melting point of 131 °C.

With `NC(=O)CCCCC1(c2ccccc2)CC(O)=CC(=O)O1` (stereo unspecified), the melting point is 173 to 174 °C.

With `CN(C)C(=O)c1cnn(-c2ccccc2)c1Br`, the melting point lay in the range of 79 to 81 °C.

Regarding `O=C1C2CCCC2=Nc2ccc(F)cc2N1Cc1ccccc1` (stereo unspecified), the melting point is 158 to 159 °C.

Consider `O=C(O)c1ccc(Cl)cc1Sc1ccc(F)cc1`, for which the melting point was 204 to 213 °C.

As to `CC(C)(C)OC(=O)c1cc(Cl)nc(Cl)c1`, the melting point is 79 to 81 °C.

Consider `CON1CCC2(CC1)NC(=O)NC2=O`, for which the melting point was in the range of 230 to 234 °C.

Compound `Fc1cc(Cl)c2nc(Cl)sc2c1-n1nc2c(c1Cl)CCCC2` registered a melting point of 161 to 163 °C.

As for `CC(=O)c1cc2ccccc2cn1`, the melting point fell in the range of 84.4 to 86.8 °C.

The compound `CC(C)(C)OC(=O)N1C[C@@H](Sc2ccccc2)C[C@H]1C(=O)O` registered a melting point of 110 to 118 °C.

Take `CCN(CC)CCc1nc(-c2ccc(OC)c(OC)c2)c2cc(OC)c(OC)cc2n1`: the melting point was 164 to 166 °C.

Take `O=c1[nH]c2c(Cl)cc(Cl)cc2c2nc(-c3ccccc3)nn12`: the melting point is 309 to 311 °C.

Compound `CC(=O)SCCc1ccc(C=O)cc1` registered a melting point of 35 °C.

In turn, `CCCCCCCN1C(=O)C2CC(c3ccc([N+](=O)[O-])cc3)(C2)C1=O` displayed a melting point of 91 to 92 °C.

Regarding `O=C(NCCCc1ccccc1)c1ccc2c(c1)C(Cl)(Cl)c1cc(C(=O)NCCCc3ccccc3)ccc1-2`, the melting point was 165 to 167 °C.

`O=C(Nc1ccccc1)C1=C(C(F)(F)F)S(=O)(=O)CCS1(=O)=O` showed a melting point of 105 to 108 °C.

With `CN(Cc1ccccc1)Cc1c(-c2ccc(NC(=O)NO)cc2)sc2c1c(=O)n(-c1ccccc1)c(=O)n2Cc1c(F)cccc1F`, the melting point lay within 164 to 165 °C.

`O=S1(=O)NCN(C2CC2)c2c(F)cc(F)cc21` came in with a melting point of 149 to 151 °C.

The compound `COC(=O)CCOc1ccc(C#N)cc1` registered a melting point of 51 °C.

Turning to `Cc1ccc2[nH]c3c(C(=O)O)cccc3c2c1Cl`, the melting point came to 305 °C.

For the compound `Cc1c(C)c(C)c(S(=O)(=O)NCCc2ccc(C(=CCCCC(=O)O)c3cccnc3)cc2)c(C)c1C`, the melting point lay in the range of 158 to 160 °C.

For `BrCc1cc2ccccc2cc1CBr`, the melting point was in the range of 147 to 148 °C.

`CN(C)C(=C[N+](=O)[O-])NCc1ccc(Cl)nc1` had a melting point of 124 to 125 °C.

Turning to `O=Cc1cc(-n2nnnc2C(F)(F)F)ccc1OC(F)(F)F`, the melting point lay in the range of 40 to 42 °C.

In turn, `Cn1ncnc1COc1nn2c(-c3ccccc3Cl)nncc2c1-c1ccccc1F` gave a melting point of 155 to 157 °C.

`CN(Cc1ccc2c(Br)c(OCc3nnn[nH]3)ccc2c1)C(=O)c1oc2ccccc2c1CCc1ccccc1` registered a melting point of 56 to 59 °C.

With `CCN1C(=O)N(c2cc(OC)cc(OC)c2)Cc2cnc(S(C)=O)nc21` (stereo unspecified), the melting point lay within 167 to 169 °C.

`Cc1nc2cccc(C(F)(F)F)c2c(=O)n1C1CCC(=O)NC1=O` (stereo unspecified) displayed a melting point of 268 to 270 °C.

Take `COC(=O)c1ccc(CC(=O)Nc2cc(Cl)ccc2N2CCCCC2)cc1`: the melting point was 156 to 158 °C.

Compound `O=C(Nc1ccc(Oc2ccnc(NC3CC3)n2)c2ccccc12)c1cc(F)cc(N2CCCCC2)c1` showed a melting point of 157 to 158 °C.

With `CC(C)Oc1ccc(-c2ccc3oc(C4CCN(C(=O)OC(C)(C)C)CC4)nc3c2)cc1F`, the melting point is 124 to 128 °C.

In the case of `O=C(O)COc1cccc(OCCC(c2ccccc2)(c2ccccc2)c2ccccc2)c1`, the melting point fell in the range of 69 to 71 °C.

In turn, `c1ccc(C2NCCc3sccc32)cc1` (stereo unspecified) showed a melting point of 79.8 to 80.7 °C.

The compound `CC1Nc2ccc3c(c2N1C)OC(CN1CC=C(c2c[nH]c4ccccc24)CC1)CO3` (stereo unspecified) displayed a melting point of 186 to 188 °C.

`N/C(=C1/Sc2ccccc2C1=O)c1ccc(F)cc1` registered a melting point of 158 °C.

The compound `O=C(O)c1c(Cl)nc(Cl)nc1Cl` yielded a melting point of 150 °C.

As to `CCCCCCCCCCCCOCCCNC(=O)c1cc(OCC(=O)O)c2ccccc2c1O`, the melting point was 150 °C.

For `CN(C)C(N)=Nc1cc(C(F)(F)F)ccc1N1CCOCC1`, the melting point was in the range of 132 to 135 °C.

Turning to `CCC(O)c1ccccc1-c1ccc(C(=O)N2Cc3ccc(C(=O)NCc4cccnc4)n3Cc3ccccc32)cc1` (stereo unspecified), the melting point lay within 111 to 115 °C.

In turn, `Cn1ccnc1NC(=S)Nc1ccccc1` came in with a melting point of 170 to 172 °C.
